Laboratory results: patent publication US20230026437A1, “BACTERIA-ASSOCIATED VOLATILE ORGANIC COMPOUNDS” (THE STATE OF ISRAEL, MINISTRY OF AGRICULTURE & RURAL …, priority 2019, published 2023)
“Also recorded” adds a separate entry of the source.

How the values were obtained:
[1] = test system: Macrophomina phaseolina, Rhizoctonia solani, Pythium aphanidermatum and Sclerotinia sclerotiorum; test: Antifungal activity of synthetic VOCs, plate assay; assay type: cell-based
Description: Antifungal activity of synthetic VOCs. The GC-MS identified VOCs produced by NYG5 were screened through literature for their any biological activity and the novel compound which were not tested so far were purchased as pure standard compound of the most representative VOCs from Hollan Moran Ltd., Israel. The pure synthetic compounds were tested against four different fungal pathogens (Macrophomina phaseolina, Rhizoctonia solani, […]) in small plastic petri plates. A freshly growing mycelial agar bid (4 mm) were placed in the center of PDA medium and one sterile paper disc (10 mm) were kept on the lid of the plate. After fungal inoculation, the tested compounds (10 μl for each) were placed on sterile filter disc and plates were double sealed with parafilm in inverted position having mycelium disc on the top side of the plate to check the direct effect of volatiles on mycelial growth. Three individual replicates were maintained for each treatment including control having sterile filter disc and solvent (70% ethanol) in which compounds were diluted. […] The plates were incubated at 25° C. and radial growth of fungal mycelial was measured at day interval until 3 days.

[2] = test system: Fusarium oxysporum f sp. Cubense; test: C3 against Fusarium oxysporum f sp. Cubense in-vitro; assay type: cell-based
[3] = test system: Meloidogyne javanica larvae; test: In-vitro nematicidal activity of 2,3-Hexanedione (C3), two-compartment plate; assay type: in vivo; conditions: 2 days of exposure, no direct contact
Description: In-vitro nematicidal activity of 2, 3-Hexanedione (C3). Nematicidal efficacy of 2,3-Hexanedione had been tested against Meloidogyne javanica larvae. M. javanica eggs were extracted from the infected root of tomato Lycopersicon esculentum using standard protocol. The experiment was set up in a two-compartment plate to test the nematicidal activity of C3 compound against M. javanica larvae. One small glass vial was placed in one-half of compartment having 300 M. javanica larvae in 1000 of 0.001 M IVIES and sterile filter disc were kept in another compartment. The discs were spot with 10 μl of different concentration (0.05 and 0.5 ppm) of C3 compound and double sealed with parafilm. Each treatment had three independent replicates with control (without any compound only sterile disc). After 2 days of incubation M. javanica were carefully washed through 30 μm sieve and allowed to pass the sieve for 3 hours. All incubations were performed in the dark at 25±1° C. Survived M. javanica were counted under microscope.

Macrophomina = test: Effect of C3 on fungal morphology (actively growing mycelium); assay type: cell-based, Macrophomina phaseolina; conditions: C3 exposure, plate assay
Arabidopsis thaliana = test: Effect of 2,3-Hexanedione (C3) on A. thaliana growth, two-compartment plate; assay type: in vivo; conditions: 2 weeks of exposure
Description: Experimental set up for evaluation of 2,3-Hexanedione (C3) effect on Arabidopsis thaliana. Plant material and seed germination. A. thaliana (Ecotype Col-1) seeds were obtained from ARO Volcani center. The seeds were surface sterilized thrice with sterile distilled water and kept at 4° C. till 48 hours for stratification in dark on moist filter paper in petri plate. After two days of stratification the seeds were placed for germination on Murashige and Skoog (MS) medium with vitamins, 3% sucrose (30 g/1), and 0.03% phytagel (pH 5.7) for 3 days at 23° C. Effect of 2,3-Hexanedione (C3) on A. thaliana growth. Effect of 2,3-Hexanedione on A. thaliana development was evaluated in-vitro conditions in a two-compartment plate assay. Uniformly germinated seeds (5) were transplanted on MS medium in one side of compartment plate and another compartment was used to place the tested compound C3 similarly with other experiments. […] The control plants were maintained without any compound in two compartment petri plates. The plants were grown under 14-hour day/10-hour night cycles at 23° C. for 2 weeks and growth parameters were observed.

[4] = test system: Fusarium oxysporum spores; test: Effect of 2,3-Hexanedione (C3) on fungal spores in liquid; assay type: cell-based
Description: Effect of 2, 3-Hexanedione (C3) on fungal spores in liquid. To test the effect of C3 on spore germination, fungal spores were harvested after 3 days growth of Fusarium oxysporum in Potato Dextrose Broth medium with continuous shaking at 25° C. To collect the spores, 3 days old grown mycelial in broth medium was filtered through sterilized glass wools and filtrate was centrifuged at 4000 rpm. The supernatant was discarded, and pellet was suspended in sterilized water to a dilution of 10^6 (spores/ml) and counted through hemocytometer. Spore inhibition test was performed in 1.5 ml Eppendorf tube having 100 μl of 5×10^5 spores and mixed with a final concentration of 1 ppm, 10 ppm and 100 ppm of C3 compound. The tubes were tightly closed and sealed with parafilm and incubated at 25° C. Spore germination was observed under compound microscope by placing 20 μl of solution droplet from control and treatment on glass slide. The germination was reconfirmed by growing the 20 μl of solution from tube on PDA simultaneously to check the mycelial growth. All experiments had three individual replicates and repeated twice having identical conditions.

N. tabacum = test: Effect of C3 on tobacco seedlings growth, two-compartment plate; assay type: in vivo, Nicotiana tabacum; conditions: 0.01 and 0.05 ppm, 14 days of growth
Description: Seeds of N. tabacum were placed on MS agar media in a two-compartment plate with C3 in different concentrations on a sterile paper disk on the other half of the plate without direct contact between the compartments. In the control treatments, a sterile disk with ethanol was used.

PR1 gene = test: Effect of C3 on PR gene expression in A. thaliana (qRT-PCR); assay type: in vivo, Arabidopsis thaliana; conditions: leaves, 7 days of exposure, no direct contact
Description: (§1) Effect of 2,3-Hexanedione (C3) on PR gene expression in A. thaliana. An individual experiment was designed similarly as described above to check the effect of 2,3-Hexanedione on PR gene induction in A. thaliana. The plants were exposed with 2,3-Hexanedione in a two compartment plates for one week. After one week, leaves from individual plants of each replicate were pooled separately for RNA isolation. Total RNA was isolated from the leaf tissue of plant using RNA isolation kit (Nucleo spin RNA Plant, MACHEREY-NAGEL) according the manufacturer's instruction. Before starting the protocol, leaves were ground under liquid N2 and 100 mg of grinded tissue was used for RNA isolation. RNA quantification was done using Qubit analyzer. Purified RNA was used for cDNA synthesis using first strand Invitrogen cDNA synthesis kit according the manufacturer's instructions with […] of RNA. Synthesized cDNA was diluted to 1000 times and 10 ul aliquots were stored for gene expression analysis. The relative gene expression level of PR1, PR2, PR5 and Actin (as internal control) were quantified for C3 exposed and control plants. For qRT PCR a 20 ul reaction was programmed at 95° C. denaturation for 1 min, followed by 40 cycles of amplification at 95° C. for 5s, 60° C. for 30s, and 72° C. for 30s.

PR5 = test: as above; assay type: in vivo, Arabidopsis thaliana; conditions: leaves, 7 days of exposure, no direct contact
Description: as §1

PR2 gene = test: as above; assay type: in vivo, Arabidopsis thaliana; conditions: leaves, 7 days of exposure, no direct contact
Description: as §1

SMILES | effect on mycelial growth ([1]; higher concentrations, 100 and 500 ppm) | effect against the fungus ([2]; 50 ppm) | effect against the fungus ([2]; 200 ppm) | larval viability ([3]; 0.05 ppm) | nematicidal activity ([3]; 0.5 ppm) [%] | effect on actively-growing mycelia (Macrophomina) | effect on plant growth parameters (Arabidopsis thaliana; 0.005 ppm and 0.5 ppm) | effect on plant growth (Arabidopsis thaliana; 0.05 ppm) | effect on fungi ([1]; 0.5 ppm) | effect of volatile exposure on all tested fungal pathogens ([1]; volatile exposure) | germination of spores ([4]; 1 ppm in liquid, at least for 3 days) | growth of treated spores on PDA medium ([4]; C3-treated spores plated on PDA) | plant biomass (N. tabacum) | primary roots length (N. tabacum) | induction of PR1 gene (PR1 gene) [fold] | PR5 at transcriptional level (PR5) | upregulation of PR2 gene transcript (PR2 gene) [fold]
CC(=O)CCC(C)C [Compound C2, 5-Methyl-2-hexanone] | inhibitory effect | – | – | – | – | – | – | – | – | – | – | – | – | – | – | – | –
CCCC(=O)C(C)=O [Compound C3, 2,3-Hexanedione] | – | inhibitory effect | lethal effect | significantly reduced | 80 | mycelium growth inhibition | did not show any effect | enhanced the growth; also recorded: significant increase | lethal | fungicidal effect | no germination | no growth was observed | significantly enhanced | longer | 3 | no significant difference | 5
